Where two headings read alike, the source gives them in different places. Positions of bridges follow the written chain, without caps; N, C: chain ends. Non-standard residues stand in square brackets, D forms with d. Residues, ends and D or L forms follow the SMILES beside them. *: point of attachment. DOTA = O=C(O)CN1CCN(CC(=O)O)CCN(CC(=O)*)CCN(CC(=O)O)CC1; Pra = C#CC[C@H](N)C(=O)O; Abu = CC[C@H](N)C(=O)O
Columns and labels:
Test in all cases: cell-based
[1] = target: T1, hNav1.7 (Homo sapiens, UniProt Q15858); details: Nav1.7 Use IC50
[2] = target: T2, hNav1.5 (Homo sapiens, UniProt Q14524)
[3] = target: T2, hNav1.5; details: IonWorks Quattro; clamped to −110 mV, depolarized to −10 mV, 5 min after compound; n=2; read-out: IWQ Use Nav1.5
[4] = target: hNav1.3 (Homo sapiens, UniProt Q9NY46); details: IonWorks Quattro; clamped to −110 mV, depolarized to −10 mV, 5 min after compound; n=2; read-out: IWQ Use Nav1.3
[5] = target: T1, hNav1.7; format: cell-based

T2 sequence (Q14524 whole entry, looked up): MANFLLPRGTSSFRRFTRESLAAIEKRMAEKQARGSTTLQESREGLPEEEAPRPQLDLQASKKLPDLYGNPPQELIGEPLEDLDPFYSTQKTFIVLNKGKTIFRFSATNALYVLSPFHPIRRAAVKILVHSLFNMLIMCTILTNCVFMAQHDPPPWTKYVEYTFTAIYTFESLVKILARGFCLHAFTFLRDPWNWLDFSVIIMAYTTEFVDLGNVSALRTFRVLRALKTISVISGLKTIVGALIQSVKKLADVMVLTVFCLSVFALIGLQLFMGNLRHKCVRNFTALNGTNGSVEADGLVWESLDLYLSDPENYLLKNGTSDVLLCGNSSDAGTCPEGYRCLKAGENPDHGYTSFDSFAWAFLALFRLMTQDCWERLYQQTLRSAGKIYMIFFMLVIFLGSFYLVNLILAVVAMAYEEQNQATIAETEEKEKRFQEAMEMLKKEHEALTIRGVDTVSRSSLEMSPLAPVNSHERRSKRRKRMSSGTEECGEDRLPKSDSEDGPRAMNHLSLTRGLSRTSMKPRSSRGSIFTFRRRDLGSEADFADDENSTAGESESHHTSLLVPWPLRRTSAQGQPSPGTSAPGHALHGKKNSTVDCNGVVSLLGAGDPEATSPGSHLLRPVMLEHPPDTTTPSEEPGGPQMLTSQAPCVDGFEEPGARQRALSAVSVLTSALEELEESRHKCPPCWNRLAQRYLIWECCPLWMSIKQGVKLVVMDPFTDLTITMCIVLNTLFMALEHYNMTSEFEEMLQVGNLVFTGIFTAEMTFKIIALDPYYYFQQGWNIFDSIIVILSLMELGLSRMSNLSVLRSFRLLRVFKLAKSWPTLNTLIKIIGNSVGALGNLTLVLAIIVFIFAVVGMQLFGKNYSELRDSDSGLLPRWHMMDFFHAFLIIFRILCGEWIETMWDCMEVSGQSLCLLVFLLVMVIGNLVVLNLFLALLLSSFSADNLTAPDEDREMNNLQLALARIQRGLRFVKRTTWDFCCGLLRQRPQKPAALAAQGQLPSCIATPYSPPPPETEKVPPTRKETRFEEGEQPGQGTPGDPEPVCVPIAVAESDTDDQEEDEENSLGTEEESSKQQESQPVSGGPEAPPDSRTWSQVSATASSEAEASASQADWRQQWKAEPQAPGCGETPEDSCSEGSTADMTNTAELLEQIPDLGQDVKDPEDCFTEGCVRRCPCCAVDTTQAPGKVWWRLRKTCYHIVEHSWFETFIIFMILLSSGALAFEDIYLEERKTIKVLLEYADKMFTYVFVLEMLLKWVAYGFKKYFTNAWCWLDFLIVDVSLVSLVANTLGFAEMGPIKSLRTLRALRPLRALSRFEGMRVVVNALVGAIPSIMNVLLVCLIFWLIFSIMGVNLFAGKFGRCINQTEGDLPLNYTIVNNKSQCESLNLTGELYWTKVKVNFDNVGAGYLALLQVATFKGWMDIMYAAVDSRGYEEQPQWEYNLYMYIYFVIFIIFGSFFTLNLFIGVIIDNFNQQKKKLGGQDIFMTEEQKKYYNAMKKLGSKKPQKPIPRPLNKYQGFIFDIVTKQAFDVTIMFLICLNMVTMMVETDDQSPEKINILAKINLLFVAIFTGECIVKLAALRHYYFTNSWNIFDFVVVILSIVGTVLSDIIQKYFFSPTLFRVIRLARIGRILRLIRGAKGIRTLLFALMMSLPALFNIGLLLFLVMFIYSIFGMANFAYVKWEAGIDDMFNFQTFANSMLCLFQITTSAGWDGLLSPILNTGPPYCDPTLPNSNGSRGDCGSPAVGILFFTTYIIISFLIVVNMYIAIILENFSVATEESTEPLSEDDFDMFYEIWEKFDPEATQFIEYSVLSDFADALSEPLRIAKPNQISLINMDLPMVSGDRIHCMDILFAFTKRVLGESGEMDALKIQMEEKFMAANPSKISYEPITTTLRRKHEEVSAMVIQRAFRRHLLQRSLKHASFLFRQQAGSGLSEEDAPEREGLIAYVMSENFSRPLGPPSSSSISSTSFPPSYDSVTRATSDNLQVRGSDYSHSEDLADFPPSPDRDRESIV
T1 sequence (Q15858 whole entry, looked up): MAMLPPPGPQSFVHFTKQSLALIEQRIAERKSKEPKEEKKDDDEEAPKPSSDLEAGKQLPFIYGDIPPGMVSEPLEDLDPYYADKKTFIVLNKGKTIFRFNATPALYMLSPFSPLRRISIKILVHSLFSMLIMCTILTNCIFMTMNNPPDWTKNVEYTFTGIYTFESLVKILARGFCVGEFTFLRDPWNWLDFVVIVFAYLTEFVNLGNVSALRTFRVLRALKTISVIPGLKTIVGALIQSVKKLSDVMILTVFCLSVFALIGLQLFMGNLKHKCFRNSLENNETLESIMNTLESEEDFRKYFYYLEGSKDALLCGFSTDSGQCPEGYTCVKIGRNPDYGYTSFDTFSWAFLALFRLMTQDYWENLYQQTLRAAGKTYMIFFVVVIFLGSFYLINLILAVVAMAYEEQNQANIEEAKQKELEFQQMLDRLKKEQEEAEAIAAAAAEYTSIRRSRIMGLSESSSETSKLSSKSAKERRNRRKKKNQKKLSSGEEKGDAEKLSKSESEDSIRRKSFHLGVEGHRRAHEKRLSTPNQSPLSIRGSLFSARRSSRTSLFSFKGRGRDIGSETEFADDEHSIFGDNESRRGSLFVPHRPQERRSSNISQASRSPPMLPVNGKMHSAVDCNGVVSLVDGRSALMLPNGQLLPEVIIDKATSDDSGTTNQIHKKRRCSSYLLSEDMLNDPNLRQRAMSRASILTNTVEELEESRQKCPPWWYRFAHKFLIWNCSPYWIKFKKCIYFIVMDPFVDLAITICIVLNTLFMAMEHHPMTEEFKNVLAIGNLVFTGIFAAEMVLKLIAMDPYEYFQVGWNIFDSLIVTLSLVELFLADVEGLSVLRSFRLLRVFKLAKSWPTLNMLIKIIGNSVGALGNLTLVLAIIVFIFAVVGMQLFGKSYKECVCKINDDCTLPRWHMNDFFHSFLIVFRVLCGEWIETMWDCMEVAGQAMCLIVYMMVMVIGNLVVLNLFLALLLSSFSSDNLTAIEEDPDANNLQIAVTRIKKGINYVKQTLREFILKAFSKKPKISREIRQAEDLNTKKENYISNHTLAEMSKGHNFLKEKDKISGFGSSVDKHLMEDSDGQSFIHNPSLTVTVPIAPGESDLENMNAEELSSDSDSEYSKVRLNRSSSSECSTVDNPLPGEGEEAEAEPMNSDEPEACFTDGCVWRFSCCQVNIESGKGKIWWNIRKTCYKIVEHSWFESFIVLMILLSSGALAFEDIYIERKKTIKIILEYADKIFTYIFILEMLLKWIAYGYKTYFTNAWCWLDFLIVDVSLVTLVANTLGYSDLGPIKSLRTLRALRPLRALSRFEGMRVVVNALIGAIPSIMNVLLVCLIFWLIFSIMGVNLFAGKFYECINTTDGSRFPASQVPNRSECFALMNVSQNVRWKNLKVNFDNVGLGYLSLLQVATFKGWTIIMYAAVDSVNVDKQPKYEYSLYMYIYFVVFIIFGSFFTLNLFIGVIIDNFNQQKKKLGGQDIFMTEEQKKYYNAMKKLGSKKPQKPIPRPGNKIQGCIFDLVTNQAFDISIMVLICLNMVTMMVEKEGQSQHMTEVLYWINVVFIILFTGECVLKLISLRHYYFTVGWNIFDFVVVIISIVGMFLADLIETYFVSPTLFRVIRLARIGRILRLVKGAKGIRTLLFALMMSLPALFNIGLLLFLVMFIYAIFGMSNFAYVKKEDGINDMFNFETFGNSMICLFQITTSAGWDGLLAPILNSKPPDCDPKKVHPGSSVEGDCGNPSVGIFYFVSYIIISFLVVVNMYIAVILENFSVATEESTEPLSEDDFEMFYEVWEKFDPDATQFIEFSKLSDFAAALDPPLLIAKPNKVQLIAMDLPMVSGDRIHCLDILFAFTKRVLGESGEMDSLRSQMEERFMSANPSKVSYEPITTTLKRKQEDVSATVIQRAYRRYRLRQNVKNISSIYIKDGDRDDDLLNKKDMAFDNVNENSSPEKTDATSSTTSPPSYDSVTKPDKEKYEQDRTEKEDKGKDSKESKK

Row | SMILES | IC50 [1] [nM] | IC50 [2] [nM] | IC50 [3] [nM] | IC50 [4] [nM] | IC50 [5] [nM] | IC50 ([5]; IonWorks Quattro, clamped to −110 mV, depolarized to −10 mV, 5 min after compound, n=2, read-out: IWQ Use Nav1.7) [nM] | IC50 ([2]; read-out: Nav1.5 Use IC50) [nM]
1 | CC[C@H](C)[C@@H]1NC(=O)[C@@H]2CSSC[C@@H]3NC(=O)[C@H](C(C)C)NC(=O)[C@H](CC(C)C)NC(=O)[C@H](CC(N)=O)NC(=O)[C@@H]4CCCN4C(=O)[C@H](CCCNC(=N)N)NC(=O)[C@H](CSSC[C@H](NC(=O)[C@@H](N)CC(=O)O)C(=O)N[C@@H](CC(C)C)C(=O)NCC(=O)N[C@@H](C)C(=O)N[C@@H](Cc4ccccc4)C(=O)N[C@@H](CCCNC(=N)N)C(=O)N[C@@H](CCCCN)C(=O)N2)NC(=O)[C@H](CSSC[C@@H](C(=O)N[C@@H](CCCCN)C(=O)N[C@@H](Cc2ccc(O)cc2)C(=O)N[C@H](C(=O)N[C@@H](Cc2ccccc2)C(N)=O)C(C)C)NC(=O)[C@H](Cc2c[nH]c4ccccc24)NC(=O)[C@H](CCCNC(=N)N)NC(=O)[C@H](Cc2c[nH]cn2)NC(=O)[C@H](CC(C)C)NC(=O)[C@H](CCCNC(=N)N)NC(=O)[C@H](CO)NC3=O)NC(=O)[C@H](CCCCN)NC(=O)[C@H](CC(=O)O)NC(=O)[C@H](Cc2cn(CCOCCOCCOCCOCCOCCOCCOCCOCCOCCOCCOCCNC(=O)CSCCO)nn2)NC(=O)[C@H](CC(=O)O)NC(=O)[C@@H]2CCCN2C1=O | 35 | > 10000 |  |  |  |  | 
2 | CC[C@@H]1NC(=O)[C@H](CC(=O)O)NC(=O)[C@@H]2CCCN2C(=O)[C@H](CCC(=O)O)NC(=O)[C@@H]2CSSC[C@@H]3NC(=O)[C@H](C(C)C)NC(=O)[C@H](CC(C)C)NC(=O)[C@H](CC(N)=O)NC(=O)[C@@H]4CCCN4C(=O)[C@H](CCCNC(=N)N)NC(=O)[C@H](CSSC[C@H](NC(=O)[C@@H](N)CC(=O)O)C(=O)N[C@@H](CC(C)C)C(=O)NCC(=O)N[C@@H](C)C(=O)N[C@@H](Cc4ccccc4)C(=O)N[C@@H](CCCNC(=N)N)C(=O)N[C@@H](CCCCN)C(=O)N2)NC(=O)[C@H](CSSC[C@@H](C(=O)N[C@@H](CCCCN)C(=O)N[C@@H](Cc2ccc(O)cc2)C(=O)N[C@H](C(=O)N[C@@H](Cc2ccccc2)C(N)=O)C(C)C)NC(=O)[C@H](Cc2c[nH]c4ccccc24)NC(=O)[C@H](CCCNC(=N)N)NC(=O)[C@H](Cc2c[nH]cn2)NC(=O)[C@H](CC(C)C)NC(=O)[C@H](CCCNC(=N)N)NC(=O)[C@H](CO)NC3=O)NC(=O)[C@H](CCCCN)NC(=O)[C@H](CC(=O)O)NC1=O (H-DCLGAFRKCEPD[Abu]DKCCRPNLVCSRLHRWCKYVF-NH2; disulfide 2-17, 9-23, 16-30) | 3.5 | > 10000 |  |  |  |  | 
3 | C#CC[C@@H]1NC(=O)[C@H](CC(=O)O)NC(=O)[C@@H]2CCCN2C(=O)[C@H](CCC(=O)O)NC(=O)[C@@H]2CSSC[C@@H]3NC(=O)[C@H](C(C)C)NC(=O)[C@H](CC(C)C)NC(=O)[C@H](CC(N)=O)NC(=O)[C@@H]4CCCN4C(=O)[C@H](CCCNC(=N)N)NC(=O)[C@H](CSSC[C@H](NC(=O)[C@@H](N)CC(=O)O)C(=O)N[C@@H](CC(C)C)C(=O)NCC(=O)N[C@@H](C)C(=O)N[C@@H](Cc4ccccc4)C(=O)N[C@@H](CCCNC(=N)N)C(=O)N[C@@H](CCCCN)C(=O)N2)NC(=O)[C@H](CSSC[C@@H](C(=O)N[C@@H](CCCCN)C(=O)N[C@@H](Cc2ccc(O)cc2)C(=O)N[C@H](C(=O)N[C@@H](Cc2ccccc2)C(N)=O)C(C)C)NC(=O)[C@H](Cc2c[nH]c4ccccc24)NC(=O)[C@H](CCCNC(=N)N)NC(=O)[C@H](Cc2c[nH]cn2)NC(=O)[C@H](CC(C)C)NC(=O)[C@H](CCCNC(=N)N)NC(=O)[C@H](CO)NC3=O)NC(=O)[C@H](CCCCN)NC(=O)[C@H](CC(=O)O)NC1=O (H-DCLGAFRKCEPD[Pra]DKCCRPNLVCSRLHRWCKYVF-NH2; disulfide 2-17, 9-23, 16-30) | 12 | 15300 |  |  |  |  | 
4 | CC[C@H](C)[C@@H]1NC(=O)[C@@H]2CSSC[C@@H]3NC(=O)[C@H](C(C)C)NC(=O)[C@H](CC(C)C)NC(=O)[C@H](CC(N)=O)NC(=O)[C@@H]4CCCN4C(=O)[C@H](CCCNC(=N)N)NC(=O)[C@H](CSSC[C@H](NC(=O)[C@@H](N)CC(=O)O)C(=O)N[C@@H](CC(C)C)C(=O)NCC(=O)N[C@@H](C)C(=O)N[C@@H](Cc4ccccc4)C(=O)N[C@@H](CCCNC(=N)N)C(=O)N[C@@H](CCCCN)C(=O)N2)NC(=O)[C@H](CSSC[C@@H](C(=O)N[C@@H](CCCCN)C(=O)N[C@@H](Cc2ccc(O)cc2)C(=O)N[C@H](C(=O)N[C@@H](Cc2ccccc2)C(N)=O)C(C)C)NC(=O)[C@H](Cc2c[nH]c4ccccc24)NC(=O)[C@H](CCCNC(=N)N)NC(=O)[C@H](Cc2c[nH]cn2)NC(=O)[C@H](CC(C)C)NC(=O)[C@H](CCCNC(=N)N)NC(=O)[C@H](CO)NC3=O)NC(=O)[C@H](CCCCN)NC(=O)[C@H](CC(=O)O)NC(=O)[C@H](CCCCNC(=O)CN2CCN(CC(=O)O)CCN(CC(=O)O)CCN(CC(=O)O)CC2)NC(=O)[C@H](CC(=O)O)NC(=O)[C@@H]2CCCN2C1=O (H-DCLGAFRKCIPDK(DOTA)DKCCRPNLVCSRLHRWCKYVF-NH2; disulfide 2-17, 9-23, 16-30) | 27.5 | > 10000 |  |  |  |  | 
5 | CC[C@@H]1NC(=O)[C@H](CC(=O)O)NC(=O)[C@@H]2CCCN2C(=O)[C@H]([C@@H](C)CC)NC(=O)[C@@H]2CSSC[C@@H]3NC(=O)[C@H](C(C)C)NC(=O)[C@H](CC(C)C)NC(=O)[C@H](CC(N)=O)NC(=O)[C@@H]4CCCN4C(=O)[C@H](CCCNC(=N)N)NC(=O)[C@H](CSSC[C@H](NC(=O)[C@@H](N)CC(=O)O)C(=O)N[C@@H](CC(C)C)C(=O)NCC(=O)N[C@@H](C)C(=O)N[C@@H](Cc4ccccc4)C(=O)N[C@@H](CCCNC(=N)N)C(=O)N[C@@H](CCCCN)C(=O)N2)NC(=O)[C@H](CSSC[C@@H](C(=O)N[C@@H](CCCCN)C(=O)N[C@@H](Cc2ccc(O)cc2)C(=O)N[C@H](C(=O)N[C@@H](Cc2ccccc2)C(N)=O)C(C)C)NC(=O)[C@H](Cc2c[nH]c4ccccc24)NC(=O)[C@H](CCCNC(=N)N)NC(=O)[C@H](Cc2c[nH]cn2)NC(=O)[C@H](CC(C)C)NC(=O)[C@H](CCCNC(=N)N)NC(=O)[C@H](CO)NC3=O)NC(=O)[C@H](CCCCN)NC(=O)[C@H](CC(=O)O)NC1=O (H-DCLGAFRKCIPD[Abu]DKCCRPNLVCSRLHRWCKYVF-NH2; disulfide 2-17, 9-23, 16-30) | 4.7 | > 10000 |  |  |  |  | 
6 | CC[C@H](C)[C@@H]1NC(=O)[C@@H]2CSSC[C@@H]3NC(=O)[C@H](C(C)C)NC(=O)[C@H](CC(C)C)NC(=O)[C@H](CC(N)=O)NC(=O)[C@@H]4CCCN4C(=O)[C@H](CCCNC(=N)N)NC(=O)[C@H](CSSC[C@H](NC(=O)[C@@H](N)CC(=O)O)C(=O)N[C@@H](CC(C)C)C(=O)N[C@@H](CCCCN)C(=O)N[C@@H](Cc4ccccc4)C(=O)N[C@@H](CCSC)C(=O)N[C@@H](CCCNC(=N)N)C(=O)N[C@@H](CCCCN)C(=O)N2)NC(=O)[C@H](CSSC[C@@H](C(=O)N[C@@H](CCCCN)C(=O)N[C@@H](Cc2ccc(O)cc2)C(=O)N[C@H](C(=O)N[C@@H](Cc2ccccc2)C(N)=O)C(C)C)NC(=O)[C@H](Cc2c[nH]c4ccccc24)NC(=O)[C@H](CCCCN)NC(=O)[C@H](Cc2cnc[nH]2)NC(=O)[C@H]([C@@H](C)O)NC(=O)[C@H](CCCNC(=N)N)NC(=O)[C@H](CO)NC3=O)NC(=O)[C@H](CCCCN)NC(=O)[C@H](CC(=O)O)NC(=O)[C@H](CC(N)=O)NC(=O)[C@H](CC(=O)O)NC(=O)[C@@H]2CCCN2C1=O [SEQ ID NO: 39] (H-DCLKFMRKCIPDNDKCCRPNLVCSRTHKWCKYVF-NH2; disulfide 2-17, 9-23, 16-30) |  | 10600 | 9820 | 180 | 200 |  | 
7 | CC[C@H](C)[C@@H]1NC(=O)[C@@H]2CSSC[C@@H]3NC(=O)[C@H](C(C)C)NC(=O)[C@H](CC(C)C)NC(=O)[C@H](CC(N)=O)NC(=O)[C@@H]4CCCN4C(=O)[C@H](CCCNC(=N)N)NC(=O)[C@H](CSSC[C@H](NC(=O)[C@@H](N)CC(=O)O)C(=O)N[C@@H](CC(C)C)C(=O)N[C@@H](CCCNC(=N)N)C(=O)N[C@@H](Cc4ccccc4)C(=O)N[C@@H](CCSC)C(=O)N[C@@H](CCCNC(=N)N)C(=O)N[C@@H](CCCCN)C(=O)N2)NC(=O)[C@H](CSSC[C@@H](C(=O)N[C@@H](CCCCN)C(=O)N[C@@H](Cc2ccc(O)cc2)C(=O)N[C@H](C(=O)N[C@@H](Cc2ccccc2)C(N)=O)C(C)C)NC(=O)[C@H](Cc2c[nH]c4ccccc24)NC(=O)[C@H](CCCCN)NC(=O)[C@H](Cc2cnc[nH]2)NC(=O)[C@H]([C@@H](C)O)NC(=O)[C@H](CCCNC(=N)N)NC(=O)[C@H](CO)NC3=O)NC(=O)[C@H](CCCCN)NC(=O)[C@H](CC(=O)O)NC(=O)[C@H](CC(N)=O)NC(=O)[C@H](CC(=O)O)NC(=O)[C@@H]2CCCN2C1=O [SEQ ID NO: 63] (H-DCLRFMRKCIPDNDKCCRPNLVCSRTHKWCKYVF-NH2; disulfide 2-17, 9-23, 16-30) |  | 5000 | 20100 | 230 | 210 |  | 
8 | CC[C@H](C)[C@@H]1NC(=O)[C@@H]2CSSC[C@@H]3NC(=O)[C@H](C(C)C)NC(=O)[C@H](CC(C)C)NC(=O)[C@H](CC(N)=O)NC(=O)[C@@H]4CCCN4C(=O)[C@H](CCCNC(=N)N)NC(=O)[C@H](CSSC[C@H](N)C(=O)N[C@@H](CC(C)C)C(=O)NCC(=O)N[C@@H](Cc4ccccc4)C(=O)N[C@@H](CCSC)C(=O)N[C@@H](CCCNC(=N)N)C(=O)N[C@@H](CCCCN)C(=O)N2)NC(=O)[C@H](CSSC[C@@H](C(=O)N[C@@H](CCCCN)C(=O)N[C@@H](Cc2ccc(O)cc2)C(=O)N[C@H](C(=O)N[C@@H](Cc2ccccc2)C(N)=O)C(C)C)NC(=O)[C@H](Cc2c[nH]c4ccccc24)NC(=O)[C@H](CCCCN)NC(=O)[C@H](Cc2c[nH]cn2)NC(=O)[C@H]([C@@H](C)O)NC(=O)[C@H](CCCNC(=N)N)NC(=O)[C@H](CO)NC3=O)NC(=O)[C@H](CCCCN)NC(=O)[C@H](CC(=O)O)NC(=O)[C@H](CC(N)=O)NC(=O)[C@H](CC(=O)O)NC(=O)[C@@H]2CCCN2C1=O [SEQ ID NO: 108] (H-CLGFMRKCIPDNDKCCRPNLVCSRTHKWCKYVF-NH2; disulfide 1-16, 8-22, 15-29) |  |  |  |  |  | 70 | 4940
